Patent publication US8563714B2, “Bridged spiro [2.4] heptane derivatives as ALX receptor and/or FPRL2 agonists” (Actelion Pharmaceuticals Ltd., priority 2009, dated 2013)

Experiments:
human ALX receptor = molecular target: T1, human ALX receptor (Homo sapiens, UniProt P25090); test: Intracellular calcium measurements (FLIPR), agonistic activity in HEK293-hALXR-Gα16 cells; format: cell-based; settings: Fluo-4 calcium FLIPR, normalized to WKYMVm 10 nM
T1 construct: expressed in transfected cells; host or cells: HEK293 (HEK293-hALXR-Gα16)
T1 sequence (P25090 1-351): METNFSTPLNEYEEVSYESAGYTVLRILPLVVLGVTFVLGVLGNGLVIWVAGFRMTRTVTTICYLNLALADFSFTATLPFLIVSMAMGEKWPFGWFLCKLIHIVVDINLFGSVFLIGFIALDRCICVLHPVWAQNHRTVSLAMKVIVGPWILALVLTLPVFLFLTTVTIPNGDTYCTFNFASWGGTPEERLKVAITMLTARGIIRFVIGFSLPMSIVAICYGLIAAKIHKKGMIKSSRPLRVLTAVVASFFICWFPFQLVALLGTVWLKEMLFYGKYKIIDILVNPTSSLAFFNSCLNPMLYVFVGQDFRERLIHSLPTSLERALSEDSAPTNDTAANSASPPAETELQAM
Method in brief: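 HEK293 cells expressing hALXR and Gα16 were loaded with 1 μM Fluo-4 AM and 20 mM HEPES for 60 min at 37°C, then exposed to serially diluted compound. FLIPR fluorescence was read at ex 488/em 540 nm. Baseline-subtracted peak responses were normalized to 10 nM WKYMVm.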

human FPRL2 = molecular target: T2, human FPRL2 (Homo sapiens, UniProt P25089); test: Intracellular calcium measurements (FLIPR), agonistic activity in HEK293-hFPRL2-Gα16 cells; format: cell-based; settings: Fluo-4 calcium FLIPR, normalized to GLY14-Humanin 100 nM
T2 construct: expressed in transfected cells; host or cells: HEK293 (HEK293-hFPRL2-Gα16)
T2 sequence (P25089 1-353): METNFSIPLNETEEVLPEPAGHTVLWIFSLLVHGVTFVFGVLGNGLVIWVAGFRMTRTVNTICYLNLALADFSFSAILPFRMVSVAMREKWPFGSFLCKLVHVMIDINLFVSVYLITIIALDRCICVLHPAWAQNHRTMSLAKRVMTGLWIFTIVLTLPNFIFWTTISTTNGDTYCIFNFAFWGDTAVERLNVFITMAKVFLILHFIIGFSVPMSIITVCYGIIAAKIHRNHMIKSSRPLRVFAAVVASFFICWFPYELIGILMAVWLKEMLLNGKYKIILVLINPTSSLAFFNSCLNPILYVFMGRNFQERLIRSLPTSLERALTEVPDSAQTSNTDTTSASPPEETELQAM
Method in brief: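 Peak values after baseline subtraction are expressed relative to 100 nM Gly14-Humanin; compounds diluted in assay buffer from 10 mM DMSO stocks.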

Row | Compound | EC50 (human ALX receptor) [nM] | EC50 (human FPRL2) [nM]
1 | O=C(NCC1C(C(=O)Nc2ccc(Br)cc2)C2C=CC1C21CC1)c1cnoc1-c1ccccc1 (stereo not drawn) [Example 160, (5R*)—N^5-(4-Bromo-phenyl)-(6R*)-6-{[(5-phenyl-isoxazole-4-carbonyl)-amino]-methyl}-(4S*,7R*)-[4,7-ethenylene-spiro[2.4]heptane]-5-carboxamide] | 37 | > 25000
2 | CC(=O)c1ccc(CNC(=O)C2C(C(=O)NCCCCN3CCCC3)C3CCC2C32CC2)o1 [Example 196, (5R)—N^5-(5-Acetyl-furan-2-yl-methyl)-(6R)—N^6-(4-pyrrolidin-1-yl-butyl)-(4S,7R)-[4,7-ethylene-spiro[2.4]heptane]-5,6-dicarboxamide] | 21 | 1080
3 | O=C(NCCCCN1CCC1)[C@H]1[C@H](C(=O)Nc2ccc(Br)cc2)[C@@H]2C=C[C@H]1C21CC1 [Example 210, (5R)—N^5-(4-Bromophenyl)-(6R)—N^6-(4-(azetidin-1-yl)butyl)-(4S,7R)-[4,7-ethenylene-spiro[2.4]heptane]-5,6-dicarboxamide] | 0.4 | 200
4 | CN1CCN(CCCCNC(=O)[C@H]2[C@H](C(=O)Nc3ccc(Br)cc3)[C@@H]3C=C[C@H]2C32CC2)CC1 [Example 213, (5R)—N^5-(4-Bromophenyl)-(6R)—N^6-(4-(4-methyl-piperazin-1-yl)butyl)-(4S,7R)-[4,7-ethenylene-spiro[2.4]heptane]-5,6-dicarboxamide] | 4.1 | 16
5 | O=C(NCCCC(=O)N1CCCC1)[C@H]1[C@H](C(=O)Nc2ccc(Br)cc2)[C@@H]2C=C[C@H]1C21CC1 [Example 214, (5R)—N^5-(4-Bromophenyl)-(6R)—N^6-(4-pyrrolidino-4-oxobutyl)-(4S,7R)-[4,7-ethenylene-spiro[2.4]heptane]-5,6-dicarboxamide] | 6.1 | 338
6 | O=C(NCCOCCN1CCCC1)[C@H]1[C@H](C(=O)Nc2ccc(Br)cc2)[C@@H]2C=C[C@H]1C21CC1 [Example 215, (5R)—N^5-(4-Bromophenyl)-(6R)—N^6-(2-(2-(pyrrolidin-1-yl)ethoxy)ethyl)-(4S,7R)-[4,7-ethenylene-spiro[2.4]heptane]-5,6-dicarboxamide] | 0.72 | 95
7 | O=C(N[C@@H]1CC[C@@H](CN2CCCC2)OC1)[C@H]1[C@H](C(=O)Nc2ccc(Br)cc2)[C@@H]2C=C[C@H]1C21CC1 [Example 216, (5R)—N^5-(4-Bromophenyl)-(6R)—N^6-((3R,6S)-6-(pyrrolidin-1-ylmethyl)tetrahydro-2H-pyran-3-yl)-(4S,7R)-[4,7-ethenylene-spiro[2.4]heptane]-5,6-dicarboxamide] | 2.7 | 297
8 | O=C(NCCCCN1CC[C@@H](F)C1)[C@H]1[C@H](C(=O)Nc2ccc(Br)cc2)[C@@H]2C=C[C@H]1C21CC1 [Example 219, (5R)—N^5-(4-Bromophenyl)-(6R)—N^6-(4((3R)-fluoropyrrolidino)butyl)-(4S,7R)-[4,7-ethenylene-spiro[2.4]heptane]-5,6-dicarboxamide] | 0.3 | 174
9 | O=C(NCCCCN1CC[C@H](F)C1)[C@H]1[C@H](C(=O)Nc2ccc(Br)cc2)[C@@H]2C=C[C@H]1C21CC1 [Example 220, (5R)—N^5-(4-Bromophenyl)-(6R)—N^6-(4-((3S)-fluoropyrrolidino)butyl)-(4S,7R)-[4,7-ethenylene-spiro[2.4]heptane]-5,6-dicarboxamide] | 0.35 | 235
10 | O=C(NCCCCCN1CCCC1)[C@H]1[C@H](C(=O)Nc2ccc(Br)cc2)[C@@H]2C=C[C@H]1C21CC1 [Example 221, (5R)—N^5-(4-Bromophenyl)-(6R)—N^6-(5-pyrrolidino-pentyl)-(4S,7R)-[4,7-ethenylene-spiro[2.4]heptane]-5,6-dicarboxamide] | 0.66 | 41
11 | O=C(NCCCCN1CCCC1)[C@H]1[C@H](C(=O)Nc2ncc(Br)s2)[C@@H]2C=C[C@H]1C21CC1 [Example 225, (5R)—N^5-(5-Bromo-thiazol-2-yl)-(6R)—N^6-(4-pyrrolidin-1-yl-butyl)-(4S,7R)-[4,7-ethenylene-spiro[2.4]heptane]-5,6-dicarboxamide] | 6.4 | 143
12 | O=C(NCCCCN1CCCC1)[C@H]1[C@H](C(=O)Nc2ncc(Br)s2)[C@@H]2CC[C@H]1C21CC1 [Example 238, (5R)—N^5-(5-Bromo-thiazol-2-yl)-(6R)—N^6-(4-pyrrolidin-1-yl-butyl)-(4S,7R)-[4,7-ethylene-spiro[2.4]heptane]-5,6-dicarboxamide] | 22 | 142
13 | NC(=O)CCNC(=O)[C@H]1[C@H](C(=O)Nc2ncc(Br)s2)[C@@H]2CC[C@H]1C21CC1 [Example 239, (5R)—N^5-(5-Bromo-thiazol-2-yl)-(6R)—N^6-(3-amino-3-oxopropyl)-(4S,7R)-[4,7-ethylene-spiro[2.4]heptane]-5,6-dicarboxamide] | 15 | > 25000
14 | CC(C)CNC(=O)C1C(C(=O)Nc2ncc(Br)s2)C2C=CC1C21CC1 (stereo not drawn) [Example 245, (5R*)—N^5-(5-Bromo-thiazol-2-yl)-(6R*)—N^6-(isobutyl)-(4S*,7R*)-[4,7-ethenylene-spiro[2.4]heptane]-5,6-dicarboxamide] | 3.9 | 8240

More lines, in order of falling EC50 (human ALX receptor), values ahead:

Row | EC50 (human ALX receptor) [nM] | EC50 (human FPRL2) [nM] | Compound
15 | 240 | > 25000 | NC(=O)CCNC(=O)[C@H]1[C@H](C(=O)NCc2ccc(Br)cc2)[C@@H]2C=C[C@H]1C21CC1 [Example 241, (5R)—N^5-(4-Bromo-phenyl-methyl)-(6R)—N^6-(3-amino-3-oxopropyl)-(4S,7R)-[4,7-ethenylene-spiro[2.4]heptane]-5,6-dicarboxamide]
16 | 38 | 61 | CC(=O)N1CCN(CCCCNC(=O)[C@H]2[C@H](C(=O)Nc3ccc(Br)cc3)[C@@H]3C=C[C@H]2C32CC2)CC1 [Example 217, (5R)—N^5-(4-Bromophenyl)-(6R)—N^6-(4-(4-acetyl-piperazin-1-yl)butyl)-(4S,7R)-[4,7-ethenylene-spiro[2.4]heptane]-5,6-dicarboxamide]
17 | 28 | 647 | CC(=O)c1ccc(CNC(=O)[C@H]2[C@H](C(=O)NCCCCN3CCCC3)[C@H]3C=C[C@@H]2C32CC2)o1 [Example 195, (5R)—N^5-(5-Acetyl-furan-2-yl-methyl)-(6R)—N^6-(4-pyrrolidin-1-yl-butyl)-(4S,7R)-[4,7-ethenylene-spiro[2.4]heptane]-5,6-dicarboxamide]
18 | 8.1 | > 25000 | NC(=O)CCNC(=O)[C@H]1[C@H](C(=O)Nc2ncc(Br)s2)[C@@H]2C=C[C@H]1C21CC1 [Example 240, (5R)—N^5-(5-Bromo-thiazol-2-yl)-(6R)—N^6-(3-amino-3-oxopropyl)-(4S,7R)-[4,7-ethenylene-spiro[2.4]heptane]-5,6-dicarboxamide]
19 | 5.9 | 6140 | NC(=O)CCNC(=O)[C@H]1[C@H](C(=O)Nc2ccc(Br)nc2)[C@@H]2C=C[C@H]1C21CC1 [Example 242, (5R)—N^5-(2-Bromo-pyrid-5-yl)-(6R)—N^6-(3-amino-3-oxopropyl)-(4S,7R)-[4,7-ethenylene-spiro[2.4]heptane]-5,6-dicarboxamide]
20 | 2.3 | 15 | CCN1CCN(CCCCNC(=O)[C@H]2[C@H](C(=O)Nc3ccc(Br)cc3)[C@@H]3C=C[C@H]2C32CC2)CC1 [Example 208, (5R)—N^5-(4-Bromophenyl)-(6R)—N^6-(4-(4-ethyl-piperazin-1-yl)-butyl)-(4S,7R)-[4,7-ethenylene-spiro[2.4]heptane]-5,6-dicarboxamide]
21 | 0.89 | 12 | CN1CCCN(CCCCNC(=O)[C@H]2[C@H](C(=O)Nc3ccc(Br)cc3)[C@@H]3C=C[C@H]2C32CC2)CC1 [Example 212, (5R)—N^5-(4-Bromophenyl)-(6R)—N^6-(4-(4-methyl-1,4-diazepan-1-yl)butyl)-(4S,7R)-[4,7-ethenylene-spiro[2.4]heptane]-5,6-dicarboxamide]
22 | 0.53 | 423 | O=C(NCCCCN1CCOCC1)[C@H]1[C@H](C(=O)Nc2ccc(Br)cc2)[C@@H]2C=C[C@H]1C21CC1 [Example 211, (5R)—N^5-(4-Bromophenyl)-(6R)—N^6-(4-morpholino-butyl)-(4S,7R)-[4,7-ethenylene-spiro[2.4]heptane]-5,6-dicarboxamide]
23 | 0.07 | 58 | O=C(NCCCCN1CCCCC1)[C@H]1[C@H](C(=O)Nc2ccc(Br)cc2)[C@@H]2C=C[C@H]1C21CC1 [Example 209, (5R)—N^5-(4-Bromophenyl)-(6R)—N^6-(4-piperidino-butyl)-(4S,7R)-[4,7-ethenylene-spiro[2.4]heptane]-5,6-dicarboxamide]
